{
  "source": "patent USRE42700E1",
  "about": "“Induction of apoptosis in cancer cells” (Sanford-Burnham Medical Research Institute, priority 2001, dated 2011)",
  "key": {"[1]": {"test_system": "PARP in M07e cells and patient leukemic blasts", "assay": "PARP cleavage by Western blot", "format": "cell-based, human", "conditions": "1 μM, by 24 hours", "experimental": "(§1) Western Blots: Western blots were performed according to the protocol of Sheikh, M. S., et al., (Oncogene, 9: 3407-3415 (1994)). Logarithmically growing cells were treated with 3-Cl-AHPC for various times and cells were harvested and lysed in Laemmli lysis buffer (0.5 M Tris-HCl, pH 6.8, 0.002M EDTA, 10% glycerol, 10% sodium dodecyl sulfate (SDS), and 5% β-mercaptoethanol). Protein lysates (50 μg/lane) were electrophoresed on 12% SDS-polyacrylamide gels and transferred to nitrocellulose membranes. Membranes were blocked with 5% nonfat dried milk in PBS/0.5% Tween 20 and then incubated with the appropriate antibodies. Horseradish peroxidase-conjugated rabbit anti-mouse IgG was used as the secondary antibody, and bands were developed using the Amersham ECL non-radioactive method."}, "[2]": {"target": "RARγ (Homo sapiens, UniProt P13631)", "sequence (P13631 whole entry, species assumed)": "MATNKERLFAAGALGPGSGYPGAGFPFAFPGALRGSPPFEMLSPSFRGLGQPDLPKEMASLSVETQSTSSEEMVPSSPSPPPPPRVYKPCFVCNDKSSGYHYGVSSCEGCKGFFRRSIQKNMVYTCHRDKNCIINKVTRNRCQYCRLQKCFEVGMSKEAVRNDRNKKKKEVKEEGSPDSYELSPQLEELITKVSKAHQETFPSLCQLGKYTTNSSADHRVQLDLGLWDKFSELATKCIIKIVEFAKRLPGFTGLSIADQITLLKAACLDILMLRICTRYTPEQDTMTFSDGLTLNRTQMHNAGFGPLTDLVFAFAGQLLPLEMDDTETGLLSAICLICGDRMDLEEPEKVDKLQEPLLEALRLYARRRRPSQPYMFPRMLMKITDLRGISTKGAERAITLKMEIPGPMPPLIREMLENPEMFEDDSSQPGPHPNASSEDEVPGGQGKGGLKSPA", "assay": "activation of RARγ on the (TREpal)2-tk-CAT reporter construct", "format": "cell-based"}, "[3]": {"test_system": "leukemic blasts from patients (AML or CML in blast crisis)", "assay": "apoptosis in primary cultures of patient leukemic blasts", "format": "cell-based, human", "experimental": "Cell Growth: IL-3-transfected M07e cells have been described by Thacker, D. J., et al., Leukemia 8: 871-877 (1994). Cells were grown in RPMI supplemented with 5 percent heat-inactivated fetal bovine serum (FBS) and 25 μg/ml gentamycin in a […], 5% CO2, and 100% humidity environment. Leukemic cells were obtained from patients who met the criteria for the diagnosis of AML or CML in blast crisis (see Table 1). Studies were approved by the Wayne State University Institutional Review Board. Informed consent was obtained from all patients. Leukemic blasts from patients were isolated using Ficoll hypaque. Cells at the interface between plasma and red blood cells were diluted with sterile PBS, then layered over Ficoll hypaque (1.077 density), and the leukemic cells collected at the interface. The sample to be studied represented greater than 90% blasts. The patient leukemia samples were grown in RPMI medium supplemented with 10% FBS, gentamycin (25 μg/ml), IL-3 (20 ng/ml), SCF (25 ng/ml), GM-CSF (20 ng/ml) and G-CSF (20 ng/ml). Cell growth was assessed using a cell proliferation kit.\nApoptosis Quantification: Staining of apoptotic cells was performed as described by Gavreli, Y., et al., (J. Cell. Biol. 119: 493-501 (1992)) and Whitacre, C. M., et al., (Cancer Res. 55: 3697-3701 (1995)). After 3-Cl-AHPC treatment, cells were harvested, washed with PBS and resuspended at 1×10^6 cells/ml. Cell suspensions (50 μl) were stained with […] of acridine orange solution ([…]) in PBS in the dark. Cells displaying fragmented DNA were detected using a fluorescent microscope. Apoptotic cells were also detected using a kit. Cells that incorporated fluorescein labeled deoxyuridine triphosphate were detected using flow cytometry."}, "[4]": {"test_system": "prostate cancer LNCaP, lung cancer NCI-H460, breast cancer ZR-75-1 and MDA-MB231 cells", "assay": "DAPI staining apoptosis in cancer cell lines", "format": "cell-based", "conditions": "10^−6 M", "experimental": "In FIG. 11, the indicated cancer cells were treated with 10^−6 M 3-Cl-AHPC, trypsinized, washed with PBS, fixed with 3.7% paraformaldehyde, and stained with 50 μg/ml DAPI containing 100 μg/ml DNase-free RNase A to visualize nuclei by fluorescent microscopy. The number of apoptotic cells with nuclear morphology typical of apoptosis, including nuclear fragmentation and condensation, was scored in at least 400 cells in each sample using a fluorescence microscope. In FIG. 12, the indicated cancer cells were treated with 10^−6 M 3-Cl-AHPC, trypsinized, washed with PBS, fixed with 3.7% paraformaldehyde, and stained with 50 μg/ml DAPI containing 100 μg/ml DNase-free RNase A to visualize nuclei and examined by fluorescent microscopy. Number of apoptotic cells with nuclear morphology typical of apoptosis, including nuclear fragmentation and condensation, was scored in at least 400 cells in each sample using a fluorescence microscope."}, "[5]": {"test_system": "MDA-MB-231", "assay": "apoptosis induction / cell death in breast cancer cells", "format": "cell-based, human"}, "[6]": {"test_system": "Bcl-2 and Mcl-1 in patient leukemic cells and M07e cells", "assay": "Bcl-2 and Mcl-1 expression", "format": "cell-based, human", "conditions": "during 3-Cl-AHPC-mediated apoptosis", "experimental": "as §1"}, "[7]": {"assay": "CFU-GM colony formation, human bone marrow", "format": "cell-based", "conditions": "bone marrow CFU-GM progenitor cells", "experimental": "CFU-GM Colony Formation: The CFU-GM colony assay was performed as described in Parchment et al., (J. Natl. Cancer Inst. 86: 273-280 (1994))."}, "[8]": {"target": "RARα (Homo sapiens, UniProt P10276)", "sequence (P10276 whole entry, species assumed)": "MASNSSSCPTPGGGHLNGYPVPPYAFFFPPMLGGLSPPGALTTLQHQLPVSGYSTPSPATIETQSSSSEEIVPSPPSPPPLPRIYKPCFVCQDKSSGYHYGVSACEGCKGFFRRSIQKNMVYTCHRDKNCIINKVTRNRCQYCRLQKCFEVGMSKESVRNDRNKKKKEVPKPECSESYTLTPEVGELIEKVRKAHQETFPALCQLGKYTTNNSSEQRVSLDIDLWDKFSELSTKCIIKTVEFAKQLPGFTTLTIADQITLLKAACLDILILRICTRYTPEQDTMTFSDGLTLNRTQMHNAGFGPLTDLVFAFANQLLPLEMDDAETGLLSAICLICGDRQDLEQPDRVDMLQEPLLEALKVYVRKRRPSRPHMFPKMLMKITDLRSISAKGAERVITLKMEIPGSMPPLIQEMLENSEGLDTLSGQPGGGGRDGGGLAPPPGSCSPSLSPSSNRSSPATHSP", "assay": "activation of RARα on the (TREpal)2-tk-CAT reporter construct", "format": "cell-based", "conditions": "1.0 μM"}, "[9]": {"test_system": "MCF-7", "assay": "apoptosis induction / cell death in breast cancer cells", "format": "cell-based, human"}, "[10]": {"test_system": "caspases in M07e cells", "assay": "caspase activation in M07e cells", "format": "cell-based, human", "experimental": "Activation of caspases-1, -2, -3, -6, -8 and -9 was assessed using a caspase activation kit."}, "[11]": {"test_system": "Bcl-XL in leukemic cells", "assay": "Bcl-XL cleavage by Western blot", "format": "cell-based, human", "conditions": "1 μM", "experimental": "as §1"}, "[12]": {"test_system": "mouse mammary adenocarcinoma 16/C", "assay": "mouse mammary adenocarcinoma 16/C in syngeneic female C3H mice", "experimental": "The ability of 3-Cl-AHPC to inhibit the in vivo growth of breast carcinoma cells was tested using syngeneic mouse mammary and human breast adenocarcinoma SCID xenograft models."}, "[13]": {"test_system": "human MX-1 breast adenocarcinoma cells", "assay": "MX-1 human mammary adenocarcinoma growth in SCID mice", "format": "in vivo"}, "[14]": {"conditions": "total dose 44 mg/kg, days 1-4, 6-8"}, "[15]": {"conditions": "total dose 89 mg/kg, days 1-4, 6-8"}, "[16]": {"conditions": "total dose 178 mg/kg, days 1-4, 6, 8"}},
  "data": [
    {"smiles": "O=C(O)/C=C/c1ccc(-c2ccc(O)c(C34CC5CC(CC(C5)C3)C4)c2)c(Cl)c1", "note": "[Example 3-Cl-AHPC, (E)-4-[3-(1-Adamantyl)-4-hydroxyphenyl]-3-chlorocinnamic acid]", "values": [
      {"measurement": "PARP cleavage", "setting": "[1]", "result": "rapid cleavage of 116-Kd PARP"},
      {"measurement": "activation of RARγ relative to that of 1.0 μM tRA", "setting": "[2]", "result": "less than 10%"},
      {"measurement": "apoptosis of leukemic blasts", "setting": "[3]; 0.5 μM", "result": 60, "unit": "%"},
      {"measurement": "induction of apoptosis", "setting": "[3]; 1 μM, 11 primary cultures", "result": "> 80", "unit": "%"},
      {"measurement": "apoptosis of leukemic blasts", "setting": "[3]; 0.2 and 0.1 μM", "result": "minimal apoptosis"},
      {"measurement": "proliferation and apoptosis of primary human AML cultures (FIG. 13)", "setting": "[3]; non-APL AML samples", "result": "inhibited the proliferation and induced apoptosis"},
      {"measurement": "concentration required to induce apoptosis", "setting": "[3]; patient leukemic cells", "result": 0.5, "unit": "µM"},
      {"measurement": "induction of apoptosis (DAPI staining)", "setting": "[4]", "result": "potently induced apoptosis"},
      {"measurement": "ED50 (concentration that results in 50% cell death)", "setting": "[5]", "result": 0.65, "unit": "µM"},
      {"measurement": "modulation of Bcl-2 and Mcl-1 expression", "setting": "[6]", "result": "no modulation of their expression"},
      {"measurement": "IC90", "setting": "[7]", "result": "> 15", "unit": "µM"},
      {"measurement": "activation of RARα", "setting": "[8]", "result": "does not activate"},
      {"measurement": "ED50 (concentration that results in 50% cell death)", "setting": "[9]", "result": 0.85, "unit": "µM"},
      {"measurement": "increase in activity of caspase-2", "setting": "[10]; 0.5 μM", "result": "approximately 2 fold"},
      {"measurement": "increase in activity of caspase-3", "setting": "[10]; 0.5 μM", "result": "approximately 2 fold"},
      {"measurement": "increase in activity of caspase-6", "setting": "[10]; 0.5 μM", "result": "approximately 2 fold"},
      {"measurement": "increase in activity of caspase-8", "setting": "[10]; 0.5 μM", "result": "approximately 2 fold"},
      {"measurement": "increase in activity of caspase-2", "setting": "[10]; 1 μM", "result": "approximately 4 fold"},
      {"measurement": "increase in activity of caspase-3", "setting": "[10]; 1 μM", "result": 2.5, "unit": "fold"},
      {"measurement": "increase in activity of caspase-6", "setting": "[10]; 1 μM", "result": 3, "unit": "fold"},
      {"measurement": "increase in activity of caspase-8", "setting": "[10]; 1 μM", "result": "approximately 4 fold"},
      {"measurement": "Bcl-XL cleavage", "setting": "[11]", "result": "cleavage of Bcl-XL to a 18-kD product"},
      {"measurement": "inhibition of tumor growth", "setting": "[12]; T/C=20%", "result": 80, "unit": "%"},
      {"measurement": "toxicity as evidenced by weight loss of the mice", "setting": "[12]; compared to AHPN", "result": "minimal toxicity"},
      {"measurement": "% body wt. loss", "setting": "[12]; [14]", "result": 4, "unit": "%"},
      {"measurement": "Drug deaths", "setting": "[12]; [14]", "result": "0/5"},
      {"measurement": "T/C %", "setting": "[12]; [14]", "result": ">100", "unit": "%"},
      {"measurement": "% body wt. loss", "setting": "[12]; [15]", "result": "−3", "unit": "%"},
      {"measurement": "Drug deaths", "setting": "[12]; [15]", "result": "0/5"},
      {"measurement": "T/C %", "setting": "[12]; [15]", "result": 47, "unit": "%"},
      {"measurement": "% body wt. loss", "setting": "[12]; [16]", "result": "−4", "unit": "%"},
      {"measurement": "Drug deaths", "setting": "[12]; [16]", "result": "0/5"},
      {"measurement": "Log cell kill", "setting": "[12]; [16]", "result": 0.9},
      {"measurement": "T/C %", "setting": "[12]; [16]", "result": 20, "unit": "%"},
      {"measurement": "animal deaths", "setting": "[13]; dose not stated (Table 5)", "result": "no animal deaths"},
      {"measurement": "inhibition of tumor growth", "setting": "[13]; dose not stated (Table 5)", "result": 70, "unit": "%"},
      {"measurement": "weight loss", "setting": "[13]; dose not stated (Table 5)", "result": "less than 4%"},
      {"measurement": "% body wt loss", "setting": "[13]; total dose 91 mg/kg, Qd (3-9)", "result": "−2", "unit": "%"},
      {"measurement": "Drug deaths", "setting": "[13]; total dose 91 mg/kg, Qd (3-9)", "result": "0/5"},
      {"measurement": "T/C %", "setting": "[13]; total dose 91 mg/kg, Qd (3-9)", "result": 62, "unit": "%"},
      {"measurement": "% body wt loss", "setting": "[13]; total dose 140 mg/kg, Qd (3-9)", "result": "−4", "unit": "%"},
      {"measurement": "Drug deaths", "setting": "[13]; total dose 140 mg/kg, Qd (3-9)", "result": "0/5"},
      {"measurement": "T/C %", "setting": "[13]; total dose 140 mg/kg, Qd (3-9)", "result": 56, "unit": "%"},
      {"measurement": "% body wt loss", "setting": "[13]; total dose 210 mg/kg, Qd (3-9)", "result": "−4", "unit": "%"},
      {"measurement": "Drug deaths", "setting": "[13]; total dose 210 mg/kg, Qd (3-9)", "result": "0/5"},
      {"measurement": "Log cell kill", "setting": "[13]; total dose 210 mg/kg, Qd (3-9)", "result": 1.2},
      {"measurement": "T/C %", "setting": "[13]; total dose 210 mg/kg, Qd (3-9)", "result": 30, "unit": "%"}
    ]}
  ]
}
